For one series, the system named is hD6D-1 control region. In words: Luciferase activity of HepG2 clones stably transfected with hD6D-1 control region-luciferase construct pGh4015.1. The class given is cell-based, human. The procedure: Stable transfection was performed using the HepG2 cell line, which was adapted to grow in tissue culture dishes treated with 0.1% gelatin. The day before transfection, the cells were plated into 60 mm tissue culture dishes, so that they were 85-95% confluent on the day of transfection. For each dish of cells to be transfected, 10 μg of plasmid DNA (pGh4015.1) along with 1 μg of the vector pRSV-NEO (ATCC# 37198), was diluted in 500 μl of Opti-MEM (GIBCO-BRL) without serum. For each dish of cells to be transfected, 10 μl of Lipofectamine 2000 reagent (GIBCO BRL) was diluted in 500 μl of Opti-MEM, and incubated at room temperature for 5 min. The diluted DNA was mixed with the diluted lipofectamine and incubated at room temperature for 20 min. The DNA-lipofectamine complexes (1 ml) were put directly into each dish of cells to be transfected and mixed gently by rocking the dish back and forth The cells were incubated at 37° C. in a CO2 incubator for 24 h Each transfected dish of cells was then passaged into two 150 mm tissue culture dishes. The following day, geneticin (GIBCO BRL) was added to the culture medium at a concentration of 800 μg/ml. The cells were kept in selection for 4 weeks. Clones were transferred into a 96-well plate (one clone per well) until they reached confluence. Subsequently, the clones were transferred to a 24-well plate before been tested for luciferase activity.
The luciferase assays were done using the Luciferase Assay System from Promega (Promega, Wis.). Briefly, the cells grown in a 24well plate, were washed with PBS (Ca^2+ and Mg^2+ free) and lysed with about 100 μl of 1× CCLR (Cell Culture Lysis Reagent, Promega). Twenty μl of cell lysate was dispensed into a luminometer tube. The tube was placed in the luminometer (Berthold #9707, Monolight 3010, PharMingen, San Diego, Calif.) and 100 μl of Luciferase Assay Reagent (Promega) was injected into the tube. The luminometer was programmed to perform a 3-second measurement delay followed by a 15-second measurement read for luciferase activity. The results were expressed in Relative Light Unit per 15 seconds (RLU/15s).
The HepG2 stable clone 19 and 72, were plated in a 24-well plate (one plate per clone) treated with 0.1% gelatin, containing α-MEM supplemented with 10% FBS (Fetal Bovine Serum) and 200 μg/ml of geneticin (all from GIBCO BRL). When the cells reached about 80% confluence, the culture medium was replace with Williams' medium E (GIBCO) containing insulin (1 μM), dexamethasone (1 nM) and 0.27% BSA (Bovine Serum Albumin) all from Sigma. Six wells for each plate were treated with DHA at a concentration of 0, 25, 50 and 100 μM. After an incubation time of 6, 24 and 48 h, the wells were washed with PBS and the cells lysed with 100 μl of 1× CCLR (Promega). The luciferase assays were performed using a single tube luminometer using the Luciferase Assay System from Promega as indicated above.

Series [1] is described as follows: Plasma phospholipid arachidonic acid content in streptozotocin-induced diabetic rats. In kind it is in vivo, rat. The procedure: Eighteen rats were injected with 75 mg STZ/kg bd wt to induce the diabetic state. After 4 days the blood glucose level in each of the STZ rats was checked. The blood sample was obtained from the tail vein. […] The diabetic rats were housed 2 per cage. After 2 weeks, approximately one half of the diabetic rats and control rats were sacrificed. After 7 weeks, the remaining diabetic and control rats were sacrificed. By sacrificing controls at the same time we eliminated any possible age effect when completing our data analysis. The rats were sacrificed by exsanguination and tissues were removed for fatty acid analyses. […]
The different lipid classes from the RBCs (phospholipids), plasma and liver (phospholipids, free fatty acids, triglycerides and cholesterol esters) were separated using neutral lipid thin-layer chromatography. […] Compounds were detected by spraying the plates with 2,7-dichlorofluorescein and the silica gel containing each of the lipid class bands was scraped from the plate and placed in screw cap test tubes.
Four ml of BF3-methanol was added to the scraped silica gel fractions or the dry cholesterol ester fraction and heated for 30 min at 90° C. […] The fatty acid methyl esters (FAME) were dissolved in HPLC grade hexane and analyzed by gas chromatography. […]

The test system of the next series is delta-6-desaturase. The class given is in vivo, rat. To be noted: for D6D activity: hepatic microsomes. The procedure:
As described in other Examples, female Wistar rats were intraperitoneally (i.p.) injected with 50 mg of streptozotocin per kg of body weight. Three days later, animals received a second dose of streptozotocin (25 mg/kg body weight). Two and 7 weeks after the onset of diabetes, non-fasted control and streptozotocin (blood glucose levels 21 to >33 mmoles/L) treated rats were put under light halothane (15% in mineral oil) anaesthesia and sacrificed by exsanguination between 9:00 and 10:00 a.m. Under these experimental conditions, variations in enzyme activity caused by circadian rhythm (Actis Dato et al., 1973, Lipids, 8: 1-6) can be avoided and a substantial (although submaximal) activity of liver desaturase can be obtained (Actis Dato et al., 1973, Lipids, 8: 1-6 and Inkpen et al., 1969, J. Lipid Res., 10: 277-282). Livers were quickly rinsed with cold 0.9% NaCl solution, weighed and minced with scissors. All procedures were performed at 4° C. unless otherwise specified. Microsomes were isolated by differential ultracentrifugation as previously described (de Antueno et al., 1994, Lipids, 29: 327-331). Briefly, livers were homogenized in a solution (1:3 w/v) containing 0.25 M sucrose, 62 mM potassium phosphate buffer (pH 7.0), 0.15 M KCl, 1.5 mM N-acetylcysteine, 5 mM MgCl2, and 0.1 mM EDTA using 4 strokes of a Potter-Elvehjem tissue homogenizer. […] The absence of mitochondrial contamination was enzymatically assessed as previously described (Kilberg M. S. and Christensen H. N., 1979, Biochemistry, 18: 1525-1530). The protein concentration was measured by the method of Lowry et al. with bovine serum albumin as the standard (Lowry et al., 1951, J. Biol. Chem., 193: 265-275).
(§1) The activities of delta-5 and delta-6 desaturases were determined by measuring the conversion of [1-^14C]20:3n-6 (dihomogamma-linolenic acid) to [1-^14C]20:4n-6 (arachidonic acid) and [1-^14C]18:2n-6 (linoleic acid) to [1-^14C]18:3n-6 (gamma-linolenic acid), respectively. […]
(§2) Radiolabeled fatty acid methyl esters (FAME) were analyzed as previously described (de Antueno et al., 1993, Lipids, 28: 285-290). […]

A further series concerns delta-5-desaturase. The series is described as follows: Hepatic delta-5-desaturase activity in streptozotocin treated rats. As to conditions: hepatic microsomes. The class given is in vivo, rat. The procedure:
As described in other Examples, female Wistar rats were intraperitoneally (i.p.) injected with 50 mg of streptozotocin per kg of body weight. Three days later, animals received a second dose of streptozotocin (25 mg/kg body weight). Two and 7 weeks after the onset of diabetes, non-fasted control and streptozotocin (blood glucose levels 21 to >33 mmoles/L) treated rats were put under light halothane (15% in mineral oil) anaesthesia and sacrificed by exsanguination between 9:00 and 10:00 a.m. […] The absence of mitochondrial contamination was enzymatically assessed as previously described (Kilberg M. S. and Christensen H. N., 1979, Biochemistry, 18: 1525-1530). The protein concentration was measured by the method of Lowry et al. with bovine serum albumin as the standard (Lowry et al., 1951, J. Biol. Chem., 193: 265-275).
as §1, §2

Like-named read-outs stand apart in the source and are kept apart here. Marks after values point to notes of the source that are not given here.

Regarding `CC/C=C\C/C=C\C/C=C\C/C=C\C/C=C\C/C=C\CCC(=O)O` [DHA, docosahexaenoic acid], the Luciferase activity with hD6D-1 control region (HepG2 clone 19, DHA 25 μM, 6 h) is recorded as 3.91E+06 RLU/15 s; in the series with hD6D-1 control region (HepG2 clone 19, DHA 25 μM, 24 h) it was 8.33E+06 RLU/15 s; in the series on hD6D-1 control region (HepG2 clone 19, DHA 25 μM, 48 h), 1.35E+07 RLU/15 s; with hD6D-1 control region (HepG2 clone 19, DHA 50 μM, 6 h) it was 3.96E+06 RLU/15 s; in the series on hD6D-1 control region (HepG2 clone 19, DHA 50 μM, 24 h), 6.32E+06 RLU/15 s; with hD6D-1 control region (HepG2 clone 19, DHA 50 μM, 48 h), 8.73E+06 RLU/15 s. The Luciferase activity turned out to be 2.11E+06 RLU/15 s with hD6D-1 control region (HepG2 clone 19, DHA 100 μM, 6 h); 3.87E+06 RLU/15 s in the series on hD6D-1 control region (HepG2 clone 19, DHA 100 μM, 24 h); 4.16E+06 RLU/15 s in the series on hD6D-1 control region (HepG2 clone 19, DHA 100 μM, 48 h); 8.27E+05 RLU/15 s with hD6D-1 control region (HepG2 clone 72, DHA 25 μM, 6 h); 2.66E+06 RLU/15 s in the series on hD6D-1 control region (HepG2 clone 72, DHA 25 μM, 24 h); 3.68E+06 RLU/15 s in the series on hD6D-1 control region (HepG2 clone 72, DHA 25 μM, 48 h). Moreover, the Luciferase activity was found to be 6.69E+05 RLU/15 s in the series on hD6D-1 control region (HepG2 clone 72, DHA 50 μM, 6 h); 1.43E+06 RLU/15 s in the series with hD6D-1 control region (HepG2 clone 72, DHA 50 μM, 24 h); 2.18E+06 RLU/15 s in the series on hD6D-1 control region (HepG2 clone 72, DHA 50 μM, 48 h); 3.07E+05 RLU/15 s with hD6D-1 control region (HepG2 clone 72, DHA 100 μM, 6 h); 8.55E+05 RLU/15 s in the series on hD6D-1 control region (HepG2 clone 72, DHA 100 μM, 24 h); 9.80E+05 RLU/15 s in the series on hD6D-1 control region (HepG2 clone 72, DHA 100 μM, 48 h).

For `CN(N=O)C(=O)N[C@H]1C(O)O[C@H](CO)[C@@H](O)[C@@H]1O` (stereo partly drawn) [STZ, 2-deoxy-2-[([methylnitroso-amino]carbonyl)amino]-D-glucopyranose], the “Reduction of plasma phospholipid AA content” value amounted to 31% in series [1] (2 week streptozotocin-induced diabetic rats) and 27% in series [1] (7 week streptozotocin-induced diabetic rats). The D6D activity in the series with delta-6-desaturase (2 weeks after STZ treatment) is 125.4 ± 34^a pmol/mg microsomal protein/min; in the series on delta-6-desaturase (7 weeks after STZ treatment) it was 102.8 ± 29^c pmol/mg microsomal protein/min. In addition, the “Reduction of delta-6-desaturase activity in hepatic microsomes compared to control rats” value with delta-6-desaturase (streptozotocin diabetic rats) stood at 37%. For the same compound, the D5D activity in the series on delta-5-desaturase (2 weeks after STZ treatment) is given as 195.6 ± 56^b pmol/mg microsomal protein/min; in the series with delta-5-desaturase (7 weeks after STZ treatment), 129.7 ± 30^d pmol/mg microsomal protein/min.

The record behind these values is patent publication US20040053234A1, “Polynucletides that control delta-6 desaturase genes and methods for identifying compounds for modulating delta-6 desaturase” (priority 2000, published 2004).
